Test results reported in patent publication US6737383B1, “Herbicidal oxadiazolidines” (priority 1999, dated 2004).

Assays:
giant foxtail = test: Test B pre/postemergence giant foxtail; format: in vivo, Setaria faberii
Outline: (§1)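 Response is a visual 0-to-10 score relative to untreated plants, where 0 means no effect and 10 means complete control, taken twelve to sixteen days after application. Treatments went onto soil at planting and onto foliage of 1- to 4-leaf plants, using a surfactant-containing non-phytotoxic solvent.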

cocklebur = test: Test B pre/postemergence cocklebur; format: in vivo, Xanthium strumarium
Outline: as §1

bedstraw = test: Test B pre/postemergence bedstraw; format: in vivo, Galium aparine
Outline: as §1

duck salad = test: Test B flood test duck salad; format: in vivo, Heteranthera limosa
Outline: (§2)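 Flood test on plants grown to the 2-leaf stage; treated plants kept in greenhouse twelve to sixteen days, then visually rated against controls on a 0 (no effect) to 10 (complete control) scale.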

pigweed = test: Test B pre/postemergence pigweed; format: in vivo, Amaranthus retroflexus
Outline: as §1

sugar beet = test: Test B pre/postemergence sugar beet; format: in vivo, Beta vulgaris
Outline: as §1

wild oat = test: Test B pre/postemergence wild oat; format: in vivo, Avena fatua
Outline: as §1

wheat = test: Test B pre/postemergence wheat; format: in vivo, Triticum aestivum
Outline: as §1

soybean = test: Test B pre/postemergence soybean; format: in vivo, Glycine max
Outline: as §1

rape = test: Test B pre/postemergence rape; format: in vivo, Brassica napus
Outline: as §1

surinam grass = test: Test B pre/postemergence surinam grass; format: in vivo, Brachiaria decumbens
Outline: as §1

purple nutsedge = test: Test B pre/postemergence purple nutsedge; format: in vivo, Cyperus rotundus
Outline: as §1

morningglory = test: Test B pre/postemergence morningglory; format: in vivo, Ipomoea hederacea
Outline: as §1

bamyardgrass = test: Test B flood test barnyardgrass; format: in vivo, Echinochloa crus-galli
Outline: as §2

smallflower flatsedge = test: Test B flood test smallflower flatsedge; format: in vivo, Cyperus difformis
Outline: as §2

blackgrass = test: Test B pre/postemergence blackgrass; format: in vivo, Alopecurus myosuroides
Outline: as §1

[1] = Postemergence, Rate 125 g/ha, scale of 0 to 10 where 0 is no effect and 10 is complete control
[2] = Preemergence, Rate 62 g/ha, scale 0 to 10 (0 no effect, 10 complete control)
[3] = Preemergence, Rate 125 g/ha, 0 is no effect, 10 is complete control
[4] = Preemergence, Rate 500 g/ha, scale 0 to 10 (0 no effect, 10 complete control)
[5] = Rate 62 g/ha, Postemergence, scale of 0 to 10 where 0 is no effect and 10 is complete control
[6] = Rate 250 g/ha, Postemergence, scale 0 to 10, 0 is no effect, 10 is complete control
[7] = Rate 500 g/ha, Postemergence, scale 0 to 10
[8] = Preemergence, Rate 250 g/ha, scale 0 to 10, 0 is no effect, 10 is complete control
[9] = Postemergence (flood test species), Rate 125 g/ha, scale of 0 to 10 where 0 is no effect and 10 is complete control
[10] = Rate 62 g/ha, Postemergence section, flood test species, scale of 0 to 10 where 0 is no effect and 10 is complete control
[11] = Rate 250 g/ha, Postemergence (flood test), scale 0 to 10, 0 is no effect, 10 is complete control
[12] = Rate 500 g/ha, listed under Postemergence (flood test species), scale 0 to 10

CC(C)N(C(=O)n1oc(=O)n(Cc2ccccc2Cl)c1=O)c1ccc(F)cc1 [Compound 140]
Giant foxtail plant response rating (giant foxtail; [1]): 1
Giant foxtail plant response rating (giant foxtail; [2]): 1
Giant foxtail plant response rating (0 to 10 scale) (giant foxtail; [3]): 8
Giant foxtail plant response rating (giant foxtail; [4]): 10
Giant foxtail plant response rating (giant foxtail; [5]): 0
Plant response rating, Giant foxtail (giant foxtail; [6]): 4
Giant foxtail plant response rating (giant foxtail; [7]): 6
Cocklebur plant response rating (cocklebur; [1]): 0
Cocklebur plant response rating (cocklebur; [2]): 0
Cocklebur plant response rating (0 to 10 scale) (cocklebur; [3]): 0
Cocklebur plant response rating (cocklebur; [8]): 0
Cocklebur plant response rating (cocklebur; [4]): 0
Cocklebur plant response rating (cocklebur; [5]): 0
Plant response rating, Cocklebur (cocklebur; [6]): 3
Cocklebur plant response rating (cocklebur; [7]): 4
Bedstraw plant response rating (bedstraw; [1]): 5
Bedstraw plant response rating (bedstraw; [2]): 0
Bedstraw plant response rating (0 to 10 scale) (bedstraw; [3]): 0
Bedstraw plant response rating (bedstraw; [8]): 0
Bedstraw plant response rating (bedstraw; [4]): 0
Bedstraw plant response rating (bedstraw; [5]): 4
Plant response rating, Bedstraw (bedstraw; [6]): 5
Bedstraw plant response rating (bedstraw; Rate 500 g/ha, Postemergence, scale 0 to 10, 0 no effect, 10 complete control): 6
Ducksalad plant response rating (duck salad; [9]): 0
Ducksalad plant response rating (duck salad; [10]): 0
Plant response rating, Ducksalad (duck salad; [11]): 0
Ducksalad plant response rating (duck salad; [12]): 0
Redroot pigweed plant response rating (pigweed; [1]): 1
Redroot pigweed plant response rating (pigweed; [2]): 0
Redroot pigweed plant response rating (0 to 10 scale) (pigweed; [3]): 0
Redroot pigweed plant response rating (pigweed; [8]): 0
Redroot pigweed plant response rating (pigweed; [4]): 0
Redroot pigweed plant response rating (pigweed; [5]): 0
Plant response rating, Redroot pigweed (pigweed; [6]): 2
Redroot pigweed plant response rating (pigweed; [7]): 3
Sugarbeets plant response rating (sugar beet; [1]): 0
Sugarbeets plant response rating (sugar beet; [2]): 0
Sugarbeets plant response rating (0 to 10 scale) (sugar beet; [3]): 0
Sugarbeets plant response rating (sugar beet; [8]): 0
Sugarbeets plant response rating (sugar beet; [4]): 1
Sugarbeets plant response rating (sugar beet; [5]): 0
Plant response rating, Sugarbeets (sugar beet; [6]): 0
Sugarbeets plant response rating (sugar beet; [7]): 0
Wild oats plant response rating (wild oat; [1]): 0
Wild oats plant response rating (wild oat; [2]): 0
Wild oats plant response rating (0 to 10 scale) (wild oat; [3]): 0
Wild oats plant response rating (wild oat; [8]): 1
Wild oats plant response rating (wild oat; [4]): 1
Wild oats plant response rating (wild oat; [5]): 0
Plant response rating, Wild oats (wild oat; [6]): 0
Wild oats plant response rating (wild oat; [7]): 1
Wheat plant response rating (wheat; [1]): 0
Wheat plant response rating (wheat; [2]): 0
Wheat plant response rating (0 to 10 scale) (wheat; [3]): 0
Wheat plant response rating (wheat; [8]): 0
Wheat plant response rating (wheat; [4]): 0
Wheat plant response rating (wheat; [5]): 0
Plant response rating, Wheat (wheat; [6]): 0
Wheat plant response rating (wheat; [7]): 0
Soybean plant response rating (soybean; [1]): 3
Soybean plant response rating (soybean; [2]): 0
Soybean plant response rating (0 to 10 scale) (soybean; [3]): 0
Soybean plant response rating (soybean; [8]): 0
Soybean plant response rating (soybean; [4]): 1
Soybean plant response rating (soybean; [5]): 3
Plant response rating, Soybean (soybean; [6]): 3
Soybean plant response rating (soybean; [7]): 5
Rape plant response rating (rape; [1]): 0
Rape plant response rating (rape; [2]): 0
Rape plant response rating (0 to 10 scale) (rape; [3]): 0
Rape plant response rating (rape; [8]): 0
Rape plant response rating (rape; [4]): 0
Rape plant response rating (rape; [5]): 0
Plant response rating, Rape (rape; [6]): 1
Rape plant response rating (rape; [7]): 2
B. signalgrass plant response rating (surinam grass; [1]): 0
B. signalgrass plant response rating (surinam grass; [2]): 0
B. signalgrass plant response rating (0 to 10 scale) (surinam grass; [3]): 0
B. signalgrass plant response rating (surinam grass; [8]): 0
B. signalgrass plant response rating (surinam grass; [4]): 2
B. signalgrass plant response rating (surinam grass; [5]): 0
Plant response rating, B. signalgrass (surinam grass; [6]): 0
B. signalgrass plant response rating (surinam grass; Rate 500 g/ha, Postemergence, scale of 0 to 10 where 0 is no effect and 10 is complete control): 1
Nutsedge plant response rating (purple nutsedge; [1]): 0
Nutsedge plant response rating (purple nutsedge; [2]): 0
Nutsedge plant response rating (0 to 10 scale) (purple nutsedge; [3]): 0
Nutsedge plant response rating (purple nutsedge; [8]): 0
Nutsedge plant response rating (purple nutsedge; [4]): 0
Nutsedge plant response rating (purple nutsedge; [5]): 0
Plant response rating, Nutsedge (purple nutsedge; [6]): 0
Nutsedge plant response rating (purple nutsedge; [7]): 0
Morningglory plant response rating (morningglory; [1]): 8
Morningglory plant response rating (morningglory; [2]): 0
Morningglory plant response rating (0 to 10 scale) (morningglory; [3]): 0
Morningglory plant response rating (morningglory; [8]): 0
Morningglory plant response rating (morningglory; [4]): 0
Morningglory plant response rating (morningglory; [5]): 4
Plant response rating, Morningglory (morningglory; [6]): 8
Morningglory plant response rating (morningglory; [7]): 8
Barnyardgrass plant response rating (bamyardgrass; [9]): 0
Barnyardgrass plant response rating (bamyardgrass; [10]): 0
Plant response rating, Barnyardgrass (bamyardgrass; [11]): 2
Barnyardgrass plant response rating (bamyardgrass; Rate 500 g/ha, listed under Postemergence (flood test species), scale 0 to 10, 0 no effect, 10 complete control): 8
S. Flatsedge plant response rating (smallflower flatsedge; [9]): 0
S. Flatsedge plant response rating (smallflower flatsedge; [10]): 0
Plant response rating, S. Flatsedge (smallflower flatsedge; [11]): 0
S. Flatsedge plant response rating (smallflower flatsedge; [12]): 0
Blackgrass plant response rating (blackgrass; [1]): 3
Blackgrass plant response rating (blackgrass; [2]): 0
Blackgrass plant response rating (0 to 10 scale) (blackgrass; [3]): 0
Blackgrass plant response rating (blackgrass; [8]): 4
Blackgrass plant response rating (blackgrass; [4]): 4
Blackgrass plant response rating (blackgrass; [5]): 3
Plant response rating, Blackgrass (blackgrass; [6]): 4
Blackgrass plant response rating (blackgrass; [7]): 6
